Patent US10010077B2, “Ginkgo derived compositions and their use to prevent fruit infestation by codling moth” (Missouri State University, priority 2012, dated 2018)
Marks after values point to notes of the source that are not given here.

Columns and labels:
mammals = conditions: cited from earlier work
[1] = concentration of 0.2%; cited from earlier work
codling moth neonates = test: apple plug choice feeding bioassay with codling moth neonates; format: in vivo, Cydia pomonella; parameters: key to Deterrence index: (1 − treated feeders / control feeders) × 100; conditions: for concentration at which feeding deterrent effects were found / feeding deterrent properties against codling moth neonates: Fisher exact test; for feeding deterrent properties against codling moth neonates: all concentrations tested
Experimental: Codling moth pupae were obtained from USDA-ARS Yakima Agricultural Research Laboratory in Wapato, Wash., USA. These pupae were stored at 25° C., 70-80% relative humidity and 16:8 (L:D). Moths were allowed to oviposit on polypropylene Ziploc bags (S. C. Johnson, Racine, Wis., USA). Neonates were collected 0.5-1.0 h post-hatch and subjected to bioassays immediately.
Bioassays were performed as described in details by Durden et al. (2008). Briefly, apple plugs were formed by forcing a plastic soda straw through a 20 mm thick section of apple containing both epidermis and flesh of the apple. The straw with a plug in it was cut to a length of approximately 15 mm, the plug positioned with the epidermis of the apple protruding 2 mm from the straw and entire assembly was dipped in liquid paraffin wax. Excess wax was removed from the epidermis of the plug using a warm spatula.
Five microliters of either control (dehydration alcohol only) or experimental solution was applied to the epidermis of each apple plug and allowed to dry. Using a small amount of modeling clay, four plugs (two controls, two experimental) were arranged with one control and one experimental plug facing each other at either side of a 60×15 mm polyurethane petri dish. A short piece of glass rod (1.3 mm diameter) was placed between the two pairs of plugs to form a bridge allowing tested codling moth neonate to choose between either control or experimental plug regardless of which direction the larva traveled along the glass rod.
Assays were evaluated after 20 hours to determine which plug was fed upon. Feeding deterrence index was calculated according to Jones (1952) by dividing the number of the neonates feeding on apple plugs treated with […] by the number of the neonates feeding on the plugs treated with dehydration alcohol only, subtracting this figure from 1, and multiplying the result by 100. Further details about this method may be found in Durden et al. (2008) and Durden et al., (2011).
[…] The number of tests per concentration (each test performed with a different neonate) varied between 13 and 93. The null hypothesis that 50% of neonates would choose control plugs and 50% would choose experimental plugs was tested using Fisher's Exact Test (α=0.05).

[2] = choice test versus fruit treated at 0.01 mg/ml
[3] = choice test versus fruit treated at 0.1 mg/ml
[4] = choice test versus fruit treated at 1 mg/ml
[5] = choice test versus fruit treated at 10 mg/ml
[6] = choice test versus fruit treated at 0.5 mg/ml
[7] = choice test versus fruit treated at 5 mg/ml
[8] = circa 3 mg/ml, saturated solution
[9] = choice test versus fruit treated at 30 mg/ml

Row | Molecule | Deterrence index (codling moth neonates; 0.1 mg/ml) | Number of neonates feeding Treated fruit (codling moth neonates; 0.1 mg/ml) | Deterrence index (codling moth neonates; 1 mg/ml) | Number of neonates feeding Treated fruit (codling moth neonates; 1 mg/ml) | Deterrence index (codling moth neonates; 10 mg/ml) | Number of neonates feeding Treated fruit (codling moth neonates; 10 mg/ml) | Number of neonates feeding Control fruit (codling moth neonates; [3]) | Number of neonates feeding Control fruit (codling moth neonates; [4]) | Number of neonates feeding Control fruit (codling moth neonates; [5]) | Deterrence index (codling moth neonates; 0.5 mg/ml) | Number of neonates feeding Treated fruit (codling moth neonates; 0.5 mg/ml) | Deterrence index (codling moth neonates; 5 mg/ml) | Number of neonates feeding Treated fruit (codling moth neonates; 5 mg/ml) | feeding deterrent properties against codling moth neonates (codling moth neonates) | Number of neonates feeding Control fruit (codling moth neonates; [6]) | Number of neonates feeding Control fruit (codling moth neonates; [7]) | further results
1 | CC(C)(C)[C@]1(O)CC2OC(=O)CC23C(=O)OC2OC(=O)[C@H](O)C231 (some centres unmarked) [Bilobalide] | 56.5 | 20* | 50 | 31* | 75 | 8** | 46 | 62 | 32 | – | – | – | – | – | – | – | LD50 (mammals): > 1,000 mg/kg; phytotoxicity [1]: not phytotoxic; Deterrence index (codling moth neonates; 0.001 mg/ml): 0; Number of neonates feeding Treated fruit (codling moth neonates; 0.001 mg/ml): 15; Deterrence index (codling moth neonates; 0.01 mg/ml): 23.5; Number of neonates feeding Treated fruit (codling moth neonates; 0.01 mg/ml): 13; concentration at which feeding deterrent effects were found (codling moth neonates): ≥ 0.1 mg/mL; Number of neonates feeding Control fruit (codling moth neonates; choice test versus fruit treated at 0.001 mg/ml): 15; Number of neonates feeding Control fruit (codling moth neonates; [2]): 17
2 | CCCCCCCCCCCCCc1cccc(O)c1C(=O)O [Ginkgolic acid 13:0] | – | – | 26.1 | 17 | 42.1 | 11 | – | 23 | 19 | 23.5 | 13 | 0 | 14 | did not exhibit significant feeding deterrent properties | 17 | 14 | –
3 | CCCCCCCCCCCCCCCc1cccc(O)c1C(=O)O [Ginkgolic acid 15:0] | – | – | 91.7 | 1* | – | – | – | 12 | – | 26.7 | 11 | 81.8 | 4** | – | 15 | 22 | Deterrence index (codling moth neonates; 0.2 mg/ml): 25.0; Number of neonates feeding Treated fruit (codling moth neonates; 0.2 mg/ml): 12; Deterrence index (codling moth neonates; 2 mg/ml): 73.7; Number of neonates feeding Treated fruit (codling moth neonates; 2 mg/ml): 5*; concentration at which feeding deterrent effects were found (codling moth neonates): ≥ 1 mg/mL; Number of neonates feeding Control fruit (codling moth neonates; choice test versus fruit treated at 0.2 mg/ml): 16; Number of neonates feeding Control fruit (codling moth neonates; choice test versus fruit treated at 2 mg/ml): 19
4 | CCCCCC/C=C\CCCCCCCc1cccc(O)c1C(=O)O [Ginkgolic acid 15:1] | – | – | 41.7 | 14 | 63.2 | 7 | – | 24 | 19 | 18.8 | 13 | 50.0 | 15 | did not exhibit significant feeding deterrent properties | 16 | 30 | –
5 | CCCCCC/C=C\CCCCCCCCCc1cccc(O)c1C(=O)O [Ginkgolic acid 17:1] | – | – | 5.3 | 18 | 60.0 | 8 | – | 19 | 20 | 37.5 | 10 | 54.5 | 10 | did not exhibit significant feeding deterrent properties | 16 | 22 | –
6 | C[C@@H]1C(=O)O[C@H]2C[C@@]34[C@H]5C[C@@H](C(C)(C)C)[C@]36[C@@H](OC(=O)[C@@H]6O)O[C@@]4(C(=O)O5)[C@]21O [Ginkgolide A] | 7.69 | 12 | 40.4 | 28 | 38.5 | 16 | 13 | 47 | 26 | – | – | – | – | did not exhibit significant feeding deterrent properties | – | – | –
7 | CC1C(=O)OC2C(O)C34C5CC(C(C)(C)C)C36C(OC(=O)C6O)OC4(C(=O)O5)C12O (centres unmarked) [Ginkgolide B] | 12.5 | 14 | 26.1 | 17 | 76.0 | 6*** | 16 | 23 | 25 | – | – | – | – | – | – | – | concentration at which feeding deterrent effects were found (codling moth neonates): 10 mg/mL
8 | COc1cc(-c2oc3cc(O)cc(O)c3c(=O)c2O)ccc1O [Isorhamnetin] | 10.3 | 26 | No deterrence | 43 | – | – | 29 | 28 | – | – | – | – | – | slight tendency to discourage some percentage of the larvae from infesting the fruit | – | – | Deterrence index (codling moth neonates; 0.01 mg/ml): 21.7; Number of neonates feeding Treated fruit (codling moth neonates; 0.01 mg/ml): 18; Number of neonates feeding Control fruit (codling moth neonates; [2]): 23; Number of neonates feeding Control fruit (codling moth neonates; choice test versus fruit treated at circa 3 mg/ml, saturated solution): 28; Deterrence index (codling moth neonates; [8]): 32.1; Number of neonates feeding Treated fruit (codling moth neonates; [8]): 19
9 | O=c1c(O)c(-c2ccc(O)cc2)oc2cc(O)cc(O)c12 [Kaempferol] | No deterrence | 12 | 25 | 24 | No deterrence | 10 | 8 | 32 | 10 | – | – | – | – | – | – | – | Deterrence index (codling moth neonates; 30 mg/ml): No deterrence**; Number of neonates feeding Treated fruit (codling moth neonates; 30 mg/ml): 35; Deterrence index (codling moth neonates; 60 mg/ml): No deterrence*; Number of neonates feeding Treated fruit (codling moth neonates; 60 mg/ml): 17; Number of neonates feeding Control fruit (codling moth neonates; [9]): 9; Number of neonates feeding Control fruit (codling moth neonates; choice test versus fruit treated at 60 mg/ml): 3
10 | O=c1c(O)c(-c2ccc(O)c(O)c2)oc2cc(O)cc(O)c12 [Quercetin] | No deterrence | 14 | No deterrence | 24 | No deterrence | 20 | 10 | 24 | 16 | – | – | – | – | – | – | – | Deterrence index (codling moth neonates; 30 mg/ml): No deterrence**; Number of neonates feeding Treated fruit (codling moth neonates; 30 mg/ml): 21; Number of neonates feeding Control fruit (codling moth neonates; [9]): 4
11 | Ginkgolide C | 11.8 | 15 | 20 | 24 | 10 | 18 | 17 | 30 | 20 | – | – | – | – | did not exhibit significant feeding deterrent properties | – | – | –
